Test results reported in article PMC6158191, “Crystal structure of the red light-activated channelrhodopsin Chrimson” (Nature Communications, 2018).

Key:
[1] = molecular target: T1, C1Chrimson (called Chrimson in the structure and spectroscopy sections) (Chlamydomonas noctigama, UniProt Z9S8G4QJ52); assay: X-ray crystallography, […] Å; format: binding; conditions: covalent; Schiff base to conserved lysine; crystals at low pH, dark
T1 construct: residues 1-79 of CsChrimson replaced by CrChR1 1-76; Sf9; C-terminal TEV-EGFP-FLAG cleaved for crystals; C-terminal FLAG for spectroscopy; dimer
T1 sequence (Z9S8G4QJ52 1-347): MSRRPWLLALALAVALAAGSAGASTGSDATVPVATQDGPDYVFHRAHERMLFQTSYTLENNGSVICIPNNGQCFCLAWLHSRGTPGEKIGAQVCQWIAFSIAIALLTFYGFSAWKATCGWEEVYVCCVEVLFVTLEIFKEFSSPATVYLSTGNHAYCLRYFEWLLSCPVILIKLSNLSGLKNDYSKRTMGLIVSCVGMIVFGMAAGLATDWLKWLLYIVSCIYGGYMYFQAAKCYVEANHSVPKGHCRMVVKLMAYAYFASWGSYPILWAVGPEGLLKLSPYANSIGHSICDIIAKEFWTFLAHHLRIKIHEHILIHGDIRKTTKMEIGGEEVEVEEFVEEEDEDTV

CsChrimson = molecular target: T2, CsChrimson (Chlamydomonas noctigama, UniProt Z9S8G4QJ52, , form not given); assay: whole-cell patch clamp, HEK293, photocurrent on cation exchange; format: cell-based; conditions: permeant ion; 110 mM guanidinium chloride outside replacing NaCl; 110 mM NaCl inside, pHi 7.2
T2 construct: extracellular N-terminus of Chrimson replaced by that of C. subdivisa channelrhodopsin; in pmCerulean-C1 vector; HEK293 cells; with Channelrhodopsin (Chloromonas subdivisa; N-terminal extracellular part of the same polypeptide)
T2 sequence (Z9S8G4QJ52 77-347 R159H): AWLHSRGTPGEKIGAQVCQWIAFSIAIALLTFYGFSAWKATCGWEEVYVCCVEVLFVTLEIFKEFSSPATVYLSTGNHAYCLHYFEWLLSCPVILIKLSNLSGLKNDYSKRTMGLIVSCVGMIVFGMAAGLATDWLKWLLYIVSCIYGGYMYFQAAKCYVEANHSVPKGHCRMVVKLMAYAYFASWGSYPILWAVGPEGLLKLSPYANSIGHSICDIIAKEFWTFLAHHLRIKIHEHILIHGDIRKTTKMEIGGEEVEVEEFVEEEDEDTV

[2] = molecular target: C1Chrimson (Chrimson variant with the extracellular N-terminal sequence replaced by that of CrChR1) (Chlamydomonas reinhardtii | Chlamydomonas noctigama); assay: crystal structure; lipidic cubic phase (monoolein) crystals, 28-33% PEG500DME, 100 mM Na citrate pH 5.0, 100 mM Na malonate pH 7.0, 10-40 mM sarcosine; two protomers in the asymmetric unit; 2.6 Å

Compound: CC1=C(/C=C/C(C)=C/C=C/C(C)=C/C=O)C(C)(C)CCC1 [all-trans retinal]
- X-ray crystallography, 2.6 Å [1]: including the covalently attached all-trans retinal

Compound: N=C(N)N [guanidinium]
- whole-cell patch clamp, HEK293, photocurrent on cation exchange (CsChrimson): ion-conducting pore of the R162H mutant is permeable to the large cation guanidinium

Compound: C1Chrimson (Chrimson variant with the extracellular N-terminal sequence replaced by that of CrChR1)
- stoichiometry N [2]: 2
